# Active and inactive are the calls of the source. The calls are words filed in the database; no cut-off is given here.
# Experiments:
# HGC-27 [1] = test: Induction of cell cycle arrest in human HGC-27 cells assessed as decrease in CDK4 level at 0 to 10 uM by Western blot analysis; type: functional, cell-based; settings: dose 0-10 µM
# HGC-27 [2] = test: Inhibition of mitochondrial fission in human HGC-27 cells assessed as reduction in mitochondrial elongated fragments at 0 to 6 uM measured after 24 hrs by mitotracker based confocal microscopy; type: functional, cell-based; settings: dose 0-6 µM
# AGS [3] = test: Induction of apoptosis in human AGS cells transfected with pcDNA3.1-Drp1 plasmid to overexpress DRP1 assessed as necrotic cells and measured after 24 hrs by AnnexinV-FITC/PI staining based flow cytometry method (reference value: 0.2 %); type: functional
# HGC-27 [4] = test: Induction of apoptosis in human HGC-27 cells assessed as early apoptotic cells at 8 uM measured after 24 hrs by AnnexinV-FITC/PI staining based flowcytometry method (reference value: 3.3%); type: functional
# AGS [5] = test: Induction of apoptosis in human AGS cells assessed as early apoptotic cells at 8 uM measured after 24 hrs by AnnexinV-FITC/PI staining based flowcytometry method (reference value: 1.2%); type: functional
# HGC-27 [6] = test: Induction of apoptosis in human HGC-27 cells assessed as viable cells measured after 24 hrs by AnnexinV-FITC/PI staining based flow cytometry method (reference value: 96.6%); type: functional
# AGS [7] = test: Induction of apoptosis in human AGS cells assessed as late apoptotic cells measured after 24 hrs by AnnexinV-FITC/PI staining based flow cytometry method (reference value: 2.4%); type: functional
# HGC-27 [8] = test: Induction of apoptosis in human HGC-27 cells transfected with pcDNA3.1-Drp1 plasmid to overexpress DRP1 assessed as necrotic cells measured after 24 hrs by AnnexinV-FITC/PI staining based flow cytometry method (reference value: 0%); type: functional
# AGS [9] = test: Induction of cell cycle arrest in human AGS cells assessed as decrease in Cyclin D1 level at 0 to 10 uM by Western blot analysis; type: functional, cell-based; settings: dose 0-10 µM
# AGS [10] = test: Induction of apoptosis in human AGS cells assessed as late apoptotic cells at 8 uM measured after 24 hrs by AnnexinV-FITC/PI staining based flowcytometry method (reference value: 3.4%); type: functional
# HGC-27 [11] = test: Induction of cell cycle arrest in human HGC-27 cells assessed as accumulation of cells at G0/G1 phase at 10 uM incubated for 24 hrs propidium iodide staining-based flow cytometric analysis (reference value: 45.21%); type: functional
# AGS [12] = test: Induction of apoptosis in human AGS cells assessed as late apoptotic cells at 6 uM measured after 24 hrs by AnnexinV-FITC/PI staining based flowcytometry method (reference value: 3.4%); type: functional
# HGC-27 [13] = test: Induction of apoptosis in human HGC-27 cells assessed as necrotic cells at 10 uM measured after 24 hrs by AnnexinV-FITC/PI staining based flowcytometry method (reference value: 0.2%); type: functional
# AGS [14] = test: Induction of mitochondrial dysfunction in human AGS cells assessed as decrease in mitochondrial membrane potential measured after 24 hrs by JC-1 staining based flow cytometry; type: functional, cell-based; settings: DDE = dose-dependent effect
# AGS [15] = test: Inhibition of mitochondrial fission in human AGS cells assessed as reduction in punctiform mitochondria at 0 to 6 uM measured after 24 hrs by mitotracker based confocal microscopy; type: functional; settings: dose 0-6 µM
# AGS [16] = test: Induction of apoptosis in human AGS cells assessed as viable cells at 8 uM measured after 24 hrs by AnnexinV-FITC/PI staining based flowcytometry method (reference value: 95.2%); type: functional; settings: read-out: Activity
# AGS [17] = test: Induction of cell cycle arrest in human AGS cells assessed as decrease in CDK4 level at 0 to 10 uM by Western blot analysis; type: functional, cell-based; settings: dose 0-10 µM
# HGC-27 [18] = test: Induction of apoptosis in human HGC-27 cells assessed as late apoptotic cells at 6 uM measured after 24 hrs by AnnexinV-FITC/PI staining based flowcytometry method (reference value: 5.4%); type: functional
# AGS [19] = test: Induction of apoptosis in human AGS cells transfected with pcDNA3.1-Drp1 plasmid to overexpress DRP1 assessed as viable cells and measured after 24 hrs by AnnexinV-FITC/PI staining based flow cytometry method (reference value: 95.6 %); type: functional
# HGC-27 [20] = test: Induction of apoptosis in human HGC-27 cells transfected with pcDNA3.1-Drp1 plasmid to overexpress DRP1 assessed as viable cells measured after 24 hrs by AnnexinV-FITC/PI staining based flow cytometry method (reference value: 95.8%); type: functional
# HGC-27 [21] = test: Induction of apoptosis in human HGC-27 cells assessed as necrotic cells measured after 24 hrs by AnnexinV-FITC/PI staining based flow cytometry method (reference value: 0.1 %); type: functional
# HGC-27 [22] = test: Induction of apoptosis in human HGC-27 cells assessed as increase in cleaved caspase-9 level at 0 to 10 uM by Western blot analysis; type: functional, cell-based; settings: dose 0-10 µM
# AGS [23] = test: Induction of apoptosis in human AGS cells assessed as viable cells measured after 24 hrs by AnnexinV-FITC/PI staining based flow cytometry method (reference value: 95.4 %); type: functional
# [24] = Toxicity in nude mouse xenografted with human AGS cells assessed as effect on aspartate aminotransferase level at 10 to 20 mg/kg, ip administered every other day and monitored every 3 days; type: organism-based; settings: in vivo, 72 h, dose 10-20 mg/kg, time 3 day
# AGS [25] = test: Induction of cell cycle arrest in human AGS cells assessed as accumulation of cells at G0/G1 phase at 10 uM incubated for 24 hrs propidium iodide staining-based flow cytometric analysis (reference value: 46.51%); type: functional
# [26] = Toxicity in nude mouse xenografted with human AGS cells assessed as effect on lung morphology at 10 to 20 mg/kg, ip administered every other day and monitored every 3 days by Hematoxyin-eosin staining based analysis; type: organism-based; settings: in vivo, 72 h, dose 10-20 mg/kg, time 3 day
# HGC-27 [27] = test: Inhibition of mitochondrial fission in human HGC-27 cells assessed as reduction in punctiform mitochondria at 0 to 6 uM measured after 24 hrs by mitotracker based confocal microscopy; type: functional; settings: dose 0-6 µM
# AGS [28] = test: Induction of apoptosis in human AGS cells assessed as necrotic cells at 8 uM measured after 24 hrs by AnnexinV-FITC/PI staining based flowcytometry method (reference value: 0.2%); type: functional
# AGS [29] = test: Induction of cell cycle arrest in human AGS cells assessed as accumulation of cells at G0/G1 phase at 8 uM incubated for 24 hrs propidium iodide staining-based flow cytometric analysis (reference value: 46.51%); type: functional
# AGS [30] = test: Induction of apoptosis in human AGS cells assessed as increase in cleaved caspase-9 level at 0 to 10 uM by Western blot analysis; type: functional, cell-based; settings: dose 0-10 µM
# AGS [31] = test: Induction of apoptosis in human AGS cells assessed as necrotic cells at 10 uM measured after 24 hrs by AnnexinV-FITC/PI staining based flowcytometry method (reference value: 0.2%); type: functional
# [32] = Toxicity in nude mouse xenografted with human AGS cells assessed as effect on liver morphology at 10 to 20 mg/kg, ip administered every other day and monitored every 3 days by Hematoxyin-eosin staining based analysis; type: organism-based; settings: in vivo, 72 h, dose 10-20 mg/kg, time 3 day
# HGC-27 [33] = test: Inhibition of mitochondrial fission in human HGC-27 cells assessed as reduction in ATP content at 0 to 10 uM measured after 24 hrs by microplate reader assay; type: functional, cell-based; settings: dose 0-10 µM
# HGC-27 [34] = test: Induction of cell cycle arrest in human HGC-27 cells assessed as decrease in Cyclin D1 level at 0 to 10 uM by Western blot analysis; type: functional, cell-based; settings: dose 0-10 µM
smiles,measurement,setting,value
CC(C)=CCC12Oc3cc(O)ccc3C1(O)Oc1cc(O)c([C@H]3C=C(C)C[C@H](c4ccc(O)cc4O)[C@H]3C(=O)c3ccc(O)cc3O)c(O)c1C2=O (some centres undefined),Activity,HGC-27 [1],Active
same,inhibition,HGC-27 [2],Active
same,Activity,AGS [3],0.1%
same,Activity,HGC-27 [4],4%
same,Activity,AGS [5],2.1%
same,Activity,HGC-27 [6],91.3%
same,Activity,AGS [7],7.6%
same,Activity,HGC-27 [8],0.4%
same,Activity,AGS [9],Active
same,Activity,AGS [10],7.9%
same,Activity,HGC-27 [11],64.2%
same,Activity,AGS [12],7.9%
same,Activity,HGC-27 [13],1.3%
same,Activity,AGS [14],Dde
same,inhibition,AGS [15],Active
same,viability at 8 µM,AGS [16],89.8%
same,Activity,AGS [17],Active
same,Activity,HGC-27 [18],10%
same,Activity,AGS [19],90.3%
same,Activity,HGC-27 [20],95.4%
same,Activity,HGC-27 [21],0.4%
same,Activity,HGC-27 [22],Active
same,Activity,AGS [23],88.8%
same,Activity,[24],Non-Toxic
same,Activity,AGS [25],55.9%
same,Activity,[26],Non-Toxic
same,inhibition,HGC-27 [27],Active
same,Activity,AGS [28],0.3%
same,Activity,AGS [29],54.9%
same,Activity,AGS [30],Active
same,Activity,AGS [31],0.3%
same,Activity,[32],Non-Toxic
same,inhibition,HGC-27 [33],Active
same,Activity,HGC-27 [34],Active

# — ChEMBL document CHEMBL5126640, “Sanggenon C Suppresses Tumorigenesis of Gastric Cancer by Blocking ERK-Drp1-Mediated Mitochondrial Fission” (J Nat Prod, 2022)
